Key:
Type in all cases: physicochemical
[1] = Solubility test in Gelucire 50/13 and PEG 3350
Method: Compound (a) was weighed into a 1.5 mL HPLC vial, added about 1 mL or 880 mg of molten media, then kept stirring at different temperature at 700 rpm (see details in Table 1). Compound (a) was added until a suspension was visually observable. After stirring for about 24 hours, the obtained mixtures were quickly transferred to a filter centrifugal tube and centrifuged at 40° C. for 1 minute at 14000 rpm rate. The solution in the bottom of the filter centrifugal tube was weighed into 10 mL or 25 mL volumetric flasks (about 15-20 mg), diluents were added (ACN: water=1:1 v/v for PEG3350 or MeOH:water=8:2 v/v for Gelucire 50/13), ultrasonicated for 10 min and more diluent was added to scale and analyzed by UPLC (see method above).

[2] = Solubility test in PEG1000
Method: About 0.5 g of compound (a) was weighed into 4 mL glass vials, 1.5 g of molten PEG1000 were then added and kept stirring at 40° C. or 50° C. at 700 rpm. After stirring for 24 hours, the obtained mixtures were transferred into a filter centrifugal tube and centrifuged at 40° C. for 1 minute at 14000 rpm rate. The solution in the bottom of filter centrifugal tube wad weighed into 25 mL volumetric flasks (about 25 mg), diluent was added ACN:H2O=1:1 v/v, ultrasonicated for 10 min and more diluent was added to scale and analyzed by UPLC (see method above).

[3] = Solubility test in TPGS with different ratios of PEG1000
Method: About 0.2 g of compound (a) was weighed into 1.5 mL HPLC vials, 0.6 g of molten TPGS, TPGS with 5%, 10% or 15% PEG1000 (in w/w of TPGS) were then added and kept stirring at 45° C. at 700 rpm. Additionally to each of these mixtures, 100 ppm of Ascorbic Palmitate were added. After stirring for 24 hours, they were transferred into filter centrifugal tube and centrifuged at 40° C. for 5 minutes at 14000 rpm rate. The solutions in the bottom of filter centrifugal tube were weighed into 25 mL volumetric flasks (about 10-20 mg), diluent was added ACN:H2O=1:1 v/v, ultrasonicated for 10 min and more diluent was added to scale and analyze by UPLC (see method above). The solid residues after solubility test were collected and analyzed by XRPD (the solid residue in TPGS and TPGS with 5% PEG1000 were washed with water at 50° C. 3 times and analyzed by XRPD).
Solubility test of compound (a) in TPGS with different ratio of PEG1000 after stirring at 45° C. for 96 hours were further tested to determine the effect of time on solubility and XRPD pattern.

[4] = Solubility of compound (a) in mixed excipients (TPGS with Precirol ATO 5, PEG6000 or PEG3350)
Method: The solubility of these mixed excipients with compound (a) was then tested. Different ratios of the excipients were mixed at different temperatures (Table 6); then compound (a) was added and the mixtures stirred at the same temperature. The samples were analyzed by UPLC (see method above).

COc1cc(NC(C(=O)c2c[nH]c3ccc(OC(F)(F)F)cc23)c2ccc(Cl)cc2OC)cc(S(C)(=O)=O)c1 (centres unmarked) [compound (a)]
Solubility ([1]; in Gelucire 50/13, 55° C., 700 rpm for 24 hours): 141 mg/g | Solubility ([1]; in Gelucire 50/13, 60° C., 700 rpm for 24 hours): 148 mg/g | Solubility ([1]; in Gelucire 50/13 after stirring at 55° C. and 60° C. for 24 hours): higher than 120 mg/g | Solubility ([1]; in PEG 3350, 60° C., 700 rpm for 24 hours): 112 mg/g | Solubility ([1]; in PEG 3350, 65° C., 700 rpm for 24 hours): 121 mg/g | Solubility ([1]; in PEG 3350 at both 60° C. and 65° C.): ≤ 120 mg/g | Solubility ([2]; in PEG1000): about 140 mg/g | Solubility ([2]; in PEG 1000, 40° C., 700 rpm for 24 hours): 141 mg/g | Solubility ([2]; in PEG 1000, 50° C., 700 rpm for 24 hours): 146 mg/g | Solubility ([3]; in TPGS + 5 vol % PEG1000 + 100 ppm AP, 45° C., 96 h): 186 mg/g | Solubility ([3]; in TPGS + 5 vol % PEG1000, 45° C., 24 h): 263 mg/g | Solubility ([3]; in TPGS + 10 vol % PEG1000 + 100 ppm AP, 45° C., 96 h): 157 mg/g | Solubility ([3]; in TPGS + 10 vol % PEG1000, 45° C., 24 h): 206 mg/g | Solubility ([3]; in TPGS + 15 vol % PEG1000 + 100 ppm AP, 45° C., 96 h): 144 mg/g | Solubility ([3]; in TPGS + 15 vol % PEG1000, 45° C., 24 h): 179 mg/g | Solubility ([3]; in TPGS + 100 ppm AP, 45° C., 96 h): 225 mg/g | Solubility ([3]; in TPGS, 45° C., 24 h): 274 mg/g | Solubility ([4]; in TPGS:ATO5 90:10 w/w, 60° C.): 216.1 mg/g | Solubility ([4]; in TPGS:ATO5 90:10 w/w, 65° C.): 219.0 mg/g | Solubility ([4]; in TPGS:ATO5 95:5 w/w, 60° C.): 270.0 mg/g | Solubility ([4]; in TPGS:ATO5 95:5 w/w, 65° C.): 295.5 mg/g | Solubility ([4]; in TPGS:ATO5 98:2 w/w, 60° C.): 228.2 mg/g | Solubility ([4]; in TPGS:ATO5 98:2 w/w, 65° C.): 248.5 mg/g | Solubility ([4]; in TPGS:PEG3350 90:10 w/w, 55° C.): 71.0 mg/g | Solubility ([4]; in TPGS:PEG3350 90:10 w/w, 60° C.): 76.2 mg/g | Solubility ([4]; in TPGS:PEG6000 90:10 w/w, 55° C.): 60.8 mg/g | Solubility ([4]; in TPGS:PEG6000 90:10 w/w, 60° C.): 66.6 mg/g | Solubility ([4]; in TPGS:PEG6000 95:5 w/w, 55° C.): 81.0 mg/g | Solubility ([4]; in TPGS:PEG6000 95:5 w/w, 60° C.): 84.0 mg/g | Solubility ([4]; in TPGS:PEG6000 98:2 w/w, 55° C.): 63.0 mg/g | Solubility ([4]; in TPGS:PEG6000 98:2 w/w, 60° C.): 66.8 mg/g | Solubility ([4]; in the Precirol ATO 5/TPGS system): > 200 mg/g
